Earlier results as cited in patent EP1133548B2, “DETERGENT COMPOSITIONS IN TABLET FORM” (UNILEVER PLC, priority 1998, dated 2000).

conditions: 20°C; grams of solid to form a saturated solution in 100 grams of water

| SMILES | Water Solubility (g/100g) |
| --- | --- |
| O=BO[O-].[Na+] [Sodium perborate anhydrous] | 3.7 |
| O=P(O)(O)OP(=O)(O)OP(=O)(O)O [Sodium tripolyphosphate anhydrous] | 15 |
| NC(N)=O [Urea] | >100 |
